Test [1] concerns adult tail-tip fibroblasts (TTFs) from αMHC-GFP mice. In words: Human retroviral ORF cDNA library screen for AGHMT-mediated cardiac reprogramming (high-throughput imaging of αMHC-GFP and cTnT). It is filed as cell-based, mouse. The conditions noted are these: individual cDNA expressed together with 5F (AGHMT), 9 days, Z-score ≥2 activator, ≤−2 inhibitor. From the text:
Isolation of mouse tail-tip fibroblast. For isolation of adult mouse tail-tip fibroblasts, tails were cut from 8-12 weeks old adult wild-type or αMHC-GFP mouse and were minced into […] with razor blades after peeling off the superficial dermis. The minced tails were placed in fibroblast growth medium (DMEM supplemented with 10% FBS and 1% (vol/vol) penicillin/streptomycin). Tail-tip fibroblasts migrated out from the explants within 1 week and were passaged one time before use.
Construction of human retroviral ORFs library. Gateway-compatible Human ORFs pEntry vectors were purchased from Thermo Fisher Scientific. Gateway-compatible retroviral destination vector, pMXs-gw, was a gift from Shinya Yamanaka (Addgene plasmid #18656) (Takahashi, 2006). The inventors transferred each ORF individually into pMXs-gw by performing site-specific LR recombination using Gateway LR Clonase II Enzyme Mix kit (Thermo Fisher Scientific).
Retroviruses production, cellular reprogramming and treatment. For retroviruses production, Platinum E cells were seeded into culture dishes (1×10^5 cells/cm2) one day before transfection in DMEM supplemented with 10% FBS and 1% penicillin/streptomycin. Cells reached ˜80% confluency on the day of transfection. DNA plasmids were transfected into Platinum E cells using FuGENE 6 transfection reagent. Twenty-four hours after transfection, wild type or αMHC-GFP tail-tip fibroblasts were seeded into culture dishes or plates that were precoated with SureCoat (Cellutron) for one hour at a density of 6×10^4/cm^2. Forty-eight hours after transfection, polybrene was added to viral medium that was filtered through a 0.45-μm filter at a concentration of […]. The mixture replaced the growth medium in the cell culture plate with tail-tip fibroblasts. The viral infection was serially repeated twice. Twenty-four hours after the second infection, the viral medium was replaced with induction medium, composed of DMEM/199 (4:1), 10% conditioned medium obtained from neonatal rat cardiomyocyte culture, 10% FBS, 5% horse serum, 1% penicillin/streptomycin, 1% nonessential amino acids, 1% essential amino acids, 1% B-27, 1% insulin-selenium-transferrin, 1% vitamin mixture, and 1% sodium pyruvate (Invitrogen). Small molecule treatments were used throughout the reprogramming process […] (Sigma).
Immunocytochemistry. For immunocytochemistry, cells were fixed in 4% paraformaldehyde for 15 min and permeabilized with 0.1% Triton-X in room temperature. Cells were washed with PBS for three times followed by blocking with 10% goat serum for 1 hr. Cells then were incubated with mouse monoclonal anti-cardiac Troponin T (cTnT) antibody (Thermo Scientific) at 1:500 dilutions and rabbit anti-GFP antibody (Thermo Scientific) at 1:500 dilutions in 5% Goat serum for 1 hr. After washing with PBS three times, Cells then were incubated with donkey anti-mouse alexa fluor 647 (Invitrogen) at 1:500 and goat anti-rabbit Alexa fluor 488 at 1:500 (Invitrogen).
Identification of activators and inhibitors of cardiac reprogramming in adult fibroblasts. The inventors' previously optimized cardiac reprogramming protocol with five factors (AGHMT, also called 5F) was able to reprogram ˜3% efficiency of adult TTFs to iCMs as measured by activation of a cardiac-specific αMHC-GFP transgene and cardiac troponin T (cTnT) immunostaining (Zhou et al., 2015). To identify additional regulators of cardiac reprogramming, the inventors created a retroviral expression library consisting of 1,052 open reading frame (ORF) cDNAs representing 786 human transcription factor, cytokine, epigenetic regulator and nuclear receptor genes (Table 51). The inventors screened this expression library for activators and inhibitors of cardiac reprogramming by expressing individual cDNAs together with 5F in isolated TTFs from αMHC-GFP mice, as schematized in FIG. 1A. […]

The target of another test is T1, Myc-tagged GATA4 (Homo sapiens, UniProt P43694).
T1 construct: expressed in transfected cells; host or cells: HEK293
In words: Co-immunoprecipitation in transfected HEK293 cells. It counts as binding. The protocol:
(§1) Immunoprecipitation and Western Blot Analysis. Flag-epitope tag ZNF281 fusion protein were co-expressed with myc-epitope tag fusion GATA4, HAND2, MEF2C or TBX5 in HEK293 cells for 48 hours. Cell lysates were incubated overnight with 1 μg of mouse monoclonal anti-FLAG antibody (Sigma). The cell lysates were pulldown using magnetic Protein G Dynabeads (Invitrogen) and then the Flag-ZNF281 was eluted using 0.5 mg/ml of free Flag peptide (Sigma). The final elution and the input obtained before the immunoprecipitation was analyzed by SDS-PAGE western blot using a mouse monoclonal anti-Myc antibody (Novex) or mouse monoclonal anti-FLAG antibody (Sigma).
(§2) ZNF281 is a GATA4 coactivator. Previous reports described the influence of ZNF281 on pluripotency, stemness and epithelial-mesenchymal transition (EMT) (Hahn and Hermeking, 2014). However, the potential involvement of ZNF281 in cardiac development has not been previously explored. To begin to define the molecular mechanism whereby ZNF281 enhances cardiac reprogramming, the inventors performed co-immunoprecipitation assays with ZNF281 and each reprogramming transcription factor in transfected HEK293 cells.

The subject of test [2] is Myc-tagged HAND2, MEF2c, or TBX5. Put plainly: Co-immunoprecipitation in transfected HEK293 cells. It is filed as binding. As to the method:
as §1, §2

This is an account of results in patent publication US20210180023A1, “CARDIAC REPAIR BY REPROGRAMMING OF ADULT CARDIAC FIBROBLASTS INTO CARDIOMYOCYTES” (The Board of Regents of the University of Texas System, priority 2017, published 2021).

T1 sequence (P43694 whole entry): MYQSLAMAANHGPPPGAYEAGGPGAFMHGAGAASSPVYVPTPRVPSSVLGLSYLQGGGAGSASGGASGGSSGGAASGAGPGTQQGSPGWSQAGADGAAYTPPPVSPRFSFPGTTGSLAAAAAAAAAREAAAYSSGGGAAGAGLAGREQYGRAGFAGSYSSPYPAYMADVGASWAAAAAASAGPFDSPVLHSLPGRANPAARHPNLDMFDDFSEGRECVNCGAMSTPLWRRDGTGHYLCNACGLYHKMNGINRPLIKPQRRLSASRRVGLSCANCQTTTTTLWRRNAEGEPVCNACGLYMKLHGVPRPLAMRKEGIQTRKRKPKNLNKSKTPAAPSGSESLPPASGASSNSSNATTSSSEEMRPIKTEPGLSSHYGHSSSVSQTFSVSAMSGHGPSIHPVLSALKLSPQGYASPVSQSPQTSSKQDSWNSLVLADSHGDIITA

As to Zinc finger protein 281 [ZNF281], the “cTnT Z-score” value in test [1] is recorded as 7.0. The “αMHC Z-score” value in test [1] (αMHC-GFP) was found to be 2.9. The “co-immunoprecipitation of FLAG-tagged ZNF281” value is listed as “co-immunoprecipitated” on Myc-tagged GATA4 and “not with the other three factors” in test [2].
